Laboratory results taken from patent US8835447B2, “Method for treating androgen receptor positive cancers” (priority 2009, dated 2014).
“Also recorded” adds a separate entry of the source.

Assays:
[1] = tested on: HT1080, HeLa and DU145 cells; assay: Colony formation assay, non-PCa and AR-negative PCa cells; type: cell-based, human; conditions: 10 μM, 7 days
Description: (§1) Cell Colony Assay: Cells were plated in 24-well plates at a density allowing 6-7 days of exponential growth before confluency. Medium and compound was replaced every 48 hours to minimize the effect of potential compound instability. After 7 days of incubation in the presence of compound, cells were fixed and stained with methylene blue, followed by extraction of the stain with 1% SDS and spectrophotometry at 650 nm. Each assay was run in triplicate and the difference between control and compound-treated wells was determined using Student's t-test.
(§2) This Example provides a description of the effect of the selected compounds on the growth of PCa cells. To test the toxicity of the identified AR inhibitors towards cells of different origins, we performed colony formation assays using a single dose of each compound (10 μM) on several PCa (LNCaP, C4-2, CWR22R and DU145) and two non-PCa (HT1080 and HeLa) cell lines (FIG. 2A). […] These compounds were not weaker inhibitors of AR transcriptional activity in CWR22R or C4-2 cells than compounds that inhibited growth of the cells.

[2] = tested on: AR-expressing PCa cell lines (LNCaP, C4-2, CWR22R); assay: Toxicity to AR-expressing PCa cell lines (colony formation / dose-dependent growth inhibition); type: cell-based, human; conditions: for toxicity towards AR-expressing PCa cell lines: colony formation, 10 μM, three AR-expressing PCa cell lines; for degree of toxicity to PCa cells (killing vs reduced growth): dose-dependent toxicity, by day 7
Description: as §1
Dose-dependent inhibition of cell growth: Cells were plated at 1×10^3 cells per well in 96-well plates. Compounds were added in a dose range from 1 to 20000 nM in two-fold increments. Each dose was tested in triplicate. Controls were 0.1% DMSO (no effect on cell viability) and 50 μM 9-aminoacridine (complete cell death). Cells were incubated for 6 days and then fixed and stained with methylene blue, followed by extraction of the stain with 1% SDS and spectrophotometry at 650 nm. The assay was run two times and, based on the results, the inhibitory concentration of compound suppressing cell growth by 50% as compared to DMSO (IC50) was calculated by the sigmoid approximation method using CalcuSyn software (Biosoft, Chembridge, UK). Confidence intervals were calculated for each sigmoid.
as §2, with “the cells. […]” for “the cells.”

[3] = tested on: C4-2 tumors; assay: C4-2 xenograft model in nude mice; type: in vivo, mouse; conditions: 6 daily i.p. injections, 100xIC50 dose
Excerpt: FIGS. 6A and 6B provide data showing anti-tumor activity of the selected hits in mouse models of androgen-independent PCa. FIG. 6A provides a graphical representation of data obtained from i.p. injection of the listed compounds or DMSO vehicle into nude mice carrying subcutaneous (s.c.) C4-2 tumors. Six daily injections were given starting when tumors were around 100 mm3 in size. There were 4-5 mice per group with two tumors per mouse. Asterisks (*) and number signs (#) are placed under the means of measurement in the c6 and c11 groups respectively which are statistically different from the control group by ANOVA test (>99%) B. C52 (9 mg/kg or 18 mg/kg) or DMSO vehicle was injected into the tail vein of nude mice carrying s.c. CWR22R tumors. Five daily injections were given starting when tumors were around 40 mm3 in size. There were 10 mice per group with one tumor per mouse. Asterisks (*) are placed under the means of measurement which are statistically different from the control group by ANOVA test (>99%). Error bars in both FIGS. 6A and B—standard deviation between the size of tumors within a given treatment group.
Testing of the anti-tumor effect of compounds in mice was done according to an IACUC-approved protocol in 8 week old male athymic nude mice from Harlan (Indianapolis, Ind.). For the C4-2 xenograft model, 10^6 C4-2 cells were injected subcutaneously (s.c.) in 2 sites of each mouse in 50% matrigel (BD Biosciences, Bradford, Mass.) in PBS. Upon development of visible tumors, they were measured using digital caliper. Tumor volume was calculated according to the formula: […]. Mice were injected with compounds i.p. daily for 6 days starting on the day when at least one tumor per mouse reached 100 mm^3 in size. Five mice per group were used. For the CWR22R xenograft model, CWR22R cells were inoculated (10^5 cells per inoculum) in 50% matrigel, one site per mouse. Treatment was started when the tumor grew to a size of at least 25 mm^3. Compounds were diluted in captisol (CyDex, Lenexa, Kans.) and delivered intravenously (to reduce “first pass” liver effect) once a day for 5 days. Ten mice per group were used. Mice were monitored daily and tumors were measured every other day. Mice were euthanized according to institutional regulations when the size of tumor reached 1000 mm^3. Comparison of the tumor growth in control and treated mice was done using ANOVA test.
We evaluated the potential anti-tumor effect of the hits using C4-2 and CWR22R xenograft models of androgen-independent PCa in nude mice. Groups of C4-2 tumor-bearing mice (4-5 mice per group, each with two tumors) were given 6 daily i.p. injections of compound (100×IC50 dose) or DMSO vehicle.

[4] = tested on: C4-2 and CWR22R cells; assay: Colony formation assay, androgen-independent C4-2 and CWR22R cells; type: cell-based, human; conditions: 10 μM, 7 days
Description: (§3) Cell Colony Assay: Cells were plated in 24-well plates at a density allowing 6-7 days of exponential growth before confluency. Medium and compound was replaced every 48 hours to minimize the effect of potential compound instability. After 7 days of incubation in the presence of compound, cells were fixed and stained with methylene blue, followed by extraction of the stain with 1% SDS and spectrophotometry at 650 nm. Each assay was run in triplicate and the difference between control and compound-treated wells was determined using Student's t-test. This Example provides a description of the effect of the selected compounds on the growth of PCa cells. To test the toxicity of the identified AR inhibitors towards cells of different origins, we performed colony formation assays using a single dose of each compound (10 μM) on several PCa (LNCaP, C4-2, CW[…] and DU145) and two non-PCa (HT1080 and HeLa) cell lines (FIG. 2A). […] These compounds were not weaker inhibitors of AR transcriptional activity in CW[…] or C4-2 cells than compounds that inhibited growth of the cells.

[5] = tested on: LNCaP cells; assay: Colony formation assay, LNCaP cells; type: cell-based, human; conditions: 10 μM, 7 days
Description: as §3

[6] = tested on: CWR22R cells; assay: Cell cycle distribution by propidium iodide staining; type: cell-based, human; conditions: for changes in cell cycle distribution: increase in G1, decrease in S phase; for cells with sub-G1 DNA content (apoptotic): propidium iodide FACS
Description: Analysis of cell cycle distribution was based on staining of DNA content by propidium iodide. 10^5 cells were removed from culture dishes using trypsin, washed with PBS and resuspended in 300 μl 3% BSA in PBS, followed by addition of […] 70% ethanol. Cells were kept at −20° C. for several hours and then stained with 10 μg/ml propidium iodide in the presence of 30 μg/ml RNase A for 2 hrs at 37° C. DNA content was assessed using a FACS Calibur instrument and CellQuest software (Becton Dickinson, Franklin Lakes, N.J.).
To test this possibility, we assessed the cell cycle distribution of CWR22R cells treated with both categories of compounds. […] Therefore, different subsets of compounds inhibiting AR-dependent transcription in androgen-independent PCa cells cause either growth arrest or apoptosis in these cells. Whether a compound causes growth arrest or apoptosis is not determined by the potency of the compound as an inhibitor of AR-dependent transcription (i.e., FIG. 2B).

[7] = tested on: NIH Swiss mice; assay: Compound safety in mice, dose escalation; type: in vivo; conditions: three i.p. injections 20x, 50x, 100xIC50 in 3 day intervals
Description: Testing of compound safety in mice was done according to an IACUC-approved protocol. The experiment was performed using outbred 8 week old NIH Swiss male mice from Harlan (Indianapolis, Ind.), 4 mice per group. IC50 concentrations were used to calculate in vivo doses based on mouse weight (IC50 in vivo dose equivalent in mg/kg=IC50 in mg/ml×1000, based on the assumption that 1 g of mouse tissues have an approximate volume of 1 ml). The compounds were injected intraperitoneally (i.p.) in 25% DMSO-75% PBS starting from 20×IC50 equivalent of in vitro cytotoxic dose of compounds. […]. The control group of mice received 3 injections of 25% DMSO-75% PBS in intervals of three days. Blood biochemistry analysis was performed by BioReliance (Rockville, Md.).
Five hit compounds, representing both the ARTIS and ARTIK categories (c6, c11, c17, c52 and c85), were selected for in vivo tests based on all of the previous assays. Compound c5 was rejected due to very low microsomal stability (<5% after 1 hour incubation with rat microsomes). The toxicity of the compounds was evaluated in a dose escalation assay in which male NIH Swiss mice (n=4) received three sequential intraperitoneal (i.p.) injections of each compound delivered in 3 day intervals. […]. On the day after the last injection, half of the mice in each group were sacrificed for gross pathology examination and collection of blood for serum biochemistry assays, which include total protein, glucose, bilirubin, and creatinine levels, activity of liver enzymes, and ion concentrations. The remaining mice were sacrificed and evaluated similarly 7 days after the last compound injection. […] A minor decrease in serum glucose concentration (70-80% of control) was observed on the day after the last compound injection in almost all mice, but glucose levels were normal a week later (data not shown). Low serum glucose level might reflect of a weak transient GR-inhibitory effect of the selected compounds.

| SMILES | growth of / toxicity towards non-PCa cells or AR-negative PCa cells (DU145) [1] | toxicity towards AR-expressing PCa cell lines [2] | degree of toxicity to PCa cells (killing vs reduced growth) [2] | C4-2 tumor growth [3] | growth of androgen-independent C4-2 and CWR22R cells [4] | growth of androgen-sensitive LNCaP cells [5] | changes in cell cycle distribution [6] | cells with sub-G1 DNA content (apoptotic) [6] | toxicity in mice (visual inspection, gross pathology) [7] |
| --- | --- | --- | --- | --- | --- | --- | --- | --- | --- |
| FC(F)(F)c1ccccc1CN1CCN(Cc2c[nH]c3ccccc23)CC1 [c66] | exception | – | – | – | – | – | – | – | – |
| C=CCc1ccccc1OCCOc1ccc(C=Nn2cnnc2)cc1OC [c18] | no toxicity | different degrees of toxicity; also recorded: suppress growth of all | reduced growth as compared to untreated control cells, but not obvious cell death | – | – | – | – | – | – |
| O=C(NC(=S)Nc1nc(-c2ccccc2)cs1)c1ccc(-c2ccccc2)cc1 [c17] | no toxicity | different degrees of toxicity; also recorded: suppress growth of all | reduced growth as compared to untreated control cells, but not obvious cell death | did not | – | – | – | – | – |
| CC(C)c1ccc2oc(-c3cccc(NC(=S)NC(=O)c4ccccc4Br)c3)nc2c1 [c16] | – | – | – | – | do not affect growth | suppressed growth of LNCaP cells; also recorded: suppress growth of androgen-sensitive LNCaP cells | – | – | – |
| CC1=C(C(=O)OCCc2ccccc2)C(c2ccc(Cl)cc2)C2=C(CCCC2=O)N1 (centres unmarked) [c8] | – | – | – | – | do not affect growth | suppressed growth of LNCaP cells; also recorded: suppress growth of androgen-sensitive LNCaP cells | – | – | – |
| CC(C)(C)c1ccc(C(=O)Nc2ccc(NC(=O)c3ccc4c(c3)OCCO4)cc2)cc1 [c11] | no toxicity | different degrees of toxicity; also recorded: suppress growth of all | reduced growth as compared to untreated control cells, but not obvious cell death | clear suppression of C4-2 tumor growth | – | – | cell cycle arrest | did not result in appearance of cells with sub-G1 DNA content | generally non-toxic |
| Clc1ccccc1C1Nc2cccc3cccc(c23)N1 [c6] | no toxicity | different degrees of toxicity; also recorded: suppress growth of all | reduced growth as compared to untreated control cells, but not obvious cell death | clear suppression of C4-2 tumor growth | – | – | cell cycle arrest | did not result in appearance of cells with sub-G1 DNA content | generally non-toxic |
| c1ccc(CNc2ccc(-c3nc4ccccc4o3)cc2)cc1 [c55] | – | – | – | – | do not affect growth | suppressed growth of LNCaP cells; also recorded: suppress growth of androgen-sensitive LNCaP cells | – | – | – |
| Cc1ccc(OCC(=O)Nc2ccc(Cl)c([N+](=O)[O-])c2)c(C)c1 [c61] | – | – | – | – | do not affect growth | suppressed growth of LNCaP cells; also recorded: suppress growth of androgen-sensitive LNCaP cells | – | – | – |
| C=CCc1ccc(OCCCOc2ccccc2C(C)=O)c(OC)c1 [c47] | – | – | – | – | do not affect growth | suppressed growth of LNCaP cells; also recorded: suppress growth of androgen-sensitive LNCaP cells | – | – | – |
